Experiments:
[1] = system: ovalbumin-induced lung inflammation; assay: Mouse ovalbumin model of lung inflammation; assay type: in vivo, Mice (Balb/c); conditions: 3.0 mg/kg IT, 1x/day day 14 and 15; mouse OVA
Experimental: Mice (Balb/c) were immunized by intraperitoneal injection of ovalbumin (10 μg OVA suspended in 2 mg aluminum hydroxide) on day 0 and 7. One group was sensitized and treated with vehicle (NSV). One group was immunized with sterile water only and treated with vehicle, e.g. to serve as a nonsensitized (negative) control (Vehicle). […] On days 14 and 15, the animals were exposed to OVA by inhalation (3 h; 5 mg/m^3). Forty eight hours following the last OVA challenge (day 17) mice were sacrificed. Bronchoalveolar lavage (BAL) was taken from each animal to collect cells and fluid. Cell numbers and differentials were calculated from BAL.

[2] = system: LPS-induced airway inflammation; assay: LPS-induced airway inflammation in rats; assay type: in vivo, Male Fischer 344 rats
Experimental: Example 52 was evaluated in an LPS-induced airway inflammation model in rats. Male Fischer 344 rats (n 8/group) were treated with either vehicle or test article by intratracheal instillation in […] volume 1 hour prior to LPS challenge. Animals were then exposed to LPS by nose-only inhalation exposure for 10 minutes at 5 mg/m^3 resulting in an estimated 5 μg lung deposition. Animals were sacrificed 4 hours after LPS exposure. Lungs were lavaged for bronchoalveolar lavage cell differentials and cytokine analysis by Luminex multiplex immunoassay.

[3] = system: tobacco-smoke-induced airway inflammation; assay: Tobacco smoke model of airway inflammation in mice; assay type: in vivo, female C3H mice; conditions: mean ± s.e.m.
Experimental: Vehicle and test articles are delivered by intratracheal instillation in 10% ethanol water to animals anesthetized with 3-5% isoflurane (n=8 animals per test article group). All compounds will be delivered on a daily (5 days per week) schedule for 3 weeks during the smoke exposures. Mice were exposed to cigarette smoke for 6 hours per day, 5 days per week for 3 weeks, in H1000 or H2000 chambers. Type 2R4F research cigarettes (Kentucky Tobacco Research and Development Center) were used in the study. Total particulate material (TPM) exposure was kept at […] for the first week to allow animals to reduce adverse effects during adaptation to smoke exposure. TPM exposure was maintained between 100 and 250 mg TPM/m^3 during the remainder of the study. After 3 weeks, animals were euthanized and bronchoalveolar lavage fluid was obtained for cell differentials and cytokine analysis by Luminex multiplex immunoassay.

[4] = system: ragweed-induced bronchoconstriction; assay: Ragweed-induced bronchoconstriction in dogs; assay type: in vivo, beagle dogs; conditions: mean ± s.e.m.
Experimental: The compound of Example 52 was assesed for bronchodilator activity in a ragweed-induced bronchoconstriction model in beagle dogs. Dogs were mechanically ventilated during each experiment. Airflow and tidal volume were measured using a differential pressure transducer located in front of the endotracheal tube. An esophageal balloon catheter placed in the esophagus was used to determine transpulmonary pressure. Pulmonary resistance and dynamic lung compliance were calculated from the simultaneous measurement of transpulmonary pressure and respiratory flow. The canine exposure system was designed to expose an anesthetized animal via an intubation tube. Dogs were administered vehicle or test article by inhalation 30 minutes before ragweed antigen exposure (n=4). Dogs were challenged with ragweed antigen (ragweed short, Ambrosia artemisifolia, Greer, Lenoir, N.C.) by inhalation (5 breaths). Immediately following ragweed challenge, changes in pulmonary resistance and compliance were measured for up to 30 minutes.

[5] = system: Ascaris suum antigen-induced bronchoconstriction and airway hyperreactivity; assay: Ascaris suum-induced pulmonary responses in sheep; assay type: in vivo; conditions: for Effect on late phase bronchoconstriction and development of airway hyperreactivity: duration of action regimen
Experimental: (§1) One breath unit is defined as one breath of a 1% w/v carbachol solution. Test article was administered either by a pre-dosing or duration of action protocol. In the pre-dosing regimen, animals were dosed once daily for four days, with the last dose administered 1 hr before antigen. In the duration of action regimen, animals were dosed once daily for four days, with the last dose administered 24 hours before antigen. Test article, Ascaris antigen, and carbachol were administered by nebulized aerosol to intubated sheep.

[6] = Stability of steroid C-21 esters, carbonates and carbamates in rat lung homogenate; conditions: for Mean [Parent] (nM) at 2 hrs, 37° C.: parent compound; for Mean % compound remaining at 2 hrs, 37° C.: 900 nM, n=3
Experimental: Lungs from Fischer 344 rats were obtained fresh by overnight delivery at 4° C. from BioReclamation Inc. (Hicksville, N.Y.). Lungs were weighed and homogenized in a 1:3 w/v ratio with sterile phosphate buffered saline (PBS, 10 mM, pH 7.4) in glass vials on ice. After centrifugation at 3,000×g for 10 min at 4° C. the supernatant was decanted into sterile conical tubes and placed on ice. The total protein content of the supernatant was determined by the bicinchoninic acid (BCA) method (Pierce Biotechnology, Rockford, Ill.), using bovine serum albumin (BSA) as the standard. Lung homogenates were prepared to a final concentration of 1 mg total protein/mL in 10 mM PBS, pH 7.4.
Heat-inactivation was achieved by incubation at 80° C. for 30 min, after which the homogenate was allowed to cool to room temperature, stored overnight at 4° C. The homogenate was used for the assay and standard curve preparations. Before use, each homogenate preparation was equilibrated for 15 min in a 37° C. water bath. […] DMSO (2.7 uL) added to 3 mL of temperature-equilibrated homogenate served as a control. Aliquots (100 uL) of homogenate+compound were added to 400 μL quenching solution consisting of 100% HPLC-grade acetonitrile+500 ng/mL glyburide for the zero time point (n=3 for each time point).
The glyburide served as an internal LC/MS/MS standard. The remainder of each drug+homogenate solution was aliquoted into a 96-well tissue culture plates. After an additional 30 min and 120 min incubation at 37° C., 100 μL aliquots were added to 400 μL quenching solution. Denatured proteins in the quenching solution were separated by centrifugation at 3000×g for 2 min at 4° C., and 160 μL of the supernatants were transferred to new 96-well plate for analysis by LC/MS/MS. Collection plates were covered with plastic film and were kept on ice. For storage, covered plates were and kept stored at −80° C. until further use.
An aliquot of 50 μL of each sample was diluted with 50 μL of water containing internal standard at 4° C. The diluted samples were then centrifuged for 20 minutes at 3000 rpm at 4° C. An aliquot of 20 μL of the solution was injected into the TSQ Ultra Quantum.
LC/MS/MS system. The compounds were separated by HPLC using a HyPurity C18 HPLC column (30×2.1 mm, 5μ) from ThermoHypersil. A Multiplex LX-2 HPLC system (Cohesive Technologies, Franklin, Mass.) with two identical Agilent 1100 series binary pumps (P/N G1312A) were used for elution and separation. Samples were maintained at 4° C. in an HTS Pal autosampler (LEAP Technologies, Carrboro, N.C.) in order to reduce any potential spontaneous hydrolysis of the compounds before injection onto the HPLC. The analytes were eluted using the following mobile phases; Mobile phase A contained 1% acetonitrile in 10 mM ammonium formate aqueous solution with 1% formic acid. Mobile phase B contained 80% acetonitrile in 10 mM ammonium formate with 1% formic acid. The HPLC elution program used to elute the analytes was as follows:
The samples were further analyzed by tandem mass spectrometry using a TSQ Quantum Ultra triple quadrupole mass spectrometer (Thermo Finnigan, San Jose, Calif.) using a selective reaction monitoring (SRM) scan type. The mass spectrometry parameters used were as follows:
Nine-point standard curves for each test compound were prepared and analyzed in heat-inactivated lung homogenate. […] The data expressed in Table 2 represent the mean (n=3) percent remaining compound in both types of homogenate at 2 hours, 37° C.

[7] = system: carbachol-induced bronchoconstriction; assay: Carbachol-induced bronchoconstriction in sheep; assay type: in vivo; conditions: Example 52 4.7 mg, Salmeterol 2.5 mg, mean ± s.e.m, n=4
Experimental: as §1, with “Bronchoconstriction was evaluated” for “One breath unit is defined”, “a function” for “one breath”, “increased pulmonary resistance following” for “a 1% w/v”, “challenge. […]” for “solution.”, “carbachol challenge.” for “antigen.”, “article” for “article, Ascaris antigen,”

[8] = Drug levels in plasma, BALF and lung after IT administration in the rat
Experimental: Compounds of Examples 52 and 83 were formulated for intratracheal (IT) dosing in 10% EtOH, 90% Sterile Water, and dosed in male Sprague-Dawley rats at 3 mg/kg (Example 52) and 1 mg/kg (Example 83). Each dosing group consisted of 3 male, naïve purebred Sprague-Dawley rats. At dosing, the animals weighed ˜0.30 kg. The animals were fasted overnight prior to dose administration and up to 2 hr after dosing. The compounds were administered IT using a Penn Century Microsprayer (Model 1A-1B).
Blood samples were collected at 0.5, 2, and 4 hours post-dose. Each blood sample (0.5-0.6 mL per sample) was collected via the orbital sinus (following anesthesia for BAL procedure) into tubes containing EDTA anti-coagulant into containers surrounded by dry ice at 0.5, 2 and 4 hr (mean, n=6). Blood samples were stored at −20±5° C. until shipped for analysis.
The animals were anesthetized with an intramuscular (IM) injection of a ketamine/xylazine/acepromazine (80/10/2 mg/kg) cocktail at a dose volume of 1.1 mL/kg. A cannula (modified Bard® infant feeding tube) was inserted into the trachea. Warmed sterile saline was injected into the lungs. The lungs were gently massaged by palpation of the chest for approximately 45 seconds. The fluid (BALF) was recovered and placed on ice. The procedure was repeated two more times, and all three BALF samples pooled. The fluid was centrifuged under refrigerated conditions at 350 g for 10 minutes. The supernatant and cell pellet were collected and stored at approximately −70° C. until shipped for analysis.
Immediately following each BAL procedure, the lungs from each animal were removed, blotted dry, weighed, and stored frozen at −70° C. until shipped for analysis.
An LC/MS/MS method was used to measure the concentration of compound in plasma.
Add 3×w/v of 1×PBS buffer (90:10-PBS:ACN) to each lung tissue. Homogenize the sample w/Polytron (PT1200) and take 50 uL of supernatant and inject to LC/MSMS.
An aliquot of 50 μL of each plasma sample was treated with 100 mL of acetonitrile (ACN) containing internal standard. After the protein precipitation, an aliquot of 100 μL of the supernatant was transferred to a clean 96-well plate and mixed with 100 μL of water. An aliquot of 30 μL of the above solution was injected to the TSQ Ultra Quantum LC/MS/MS system.
A HyPurity C18 HPLC column (30×2.1 mm, 5μ) from ThermoHypersil (Part #: 22105-032130) was used. Mobile phase A contained 1% acetonitrile in 10 mM ammonium formate aqueous solution with 1% formic acid. Mobile phase B contained 80% acetonitrile in 10 mM ammonium formate with 1% formic acid. An Agilent 1100 series binary pump (P/N G1312A Bin Pump) was used for elution and separation. HTS Pal autosampler from LEAP Technologies, Carrboro, N.C. was used.
TSQ Quantum Ultra triple quadrupole mass spectrometer from Thermo Finnigan, San Jose, Calif. was used in selective reaction monitoring (SRM) operation mode, Tune file:

[9] = 0.51 mg/kg i.t. daily, 3 weeks smoke
[10] = 10 μg/kg by inhalation 30 minutes before ragweed, n=4
[11] = Duration of action regimen (last dose 24 hours before antigen), Post-Ascaris, Example 52 4.7 mg, ciclesonide 2.2 mg, salmeterol xinafoate 2.5 mg, n=4
[12] = Duration of action regimen, 1 hour, n=4
[13] = Duration of action regimen, 2 hours, n=4
[14] = Duration of action regimen, 3 hours, n=4
[15] = Duration of action regimen, 4 hours, n=4
[16] = Duration of action regimen, 5 hours, n=4
[17] = Duration of action regimen, 6 hours, n=4
[18] = Duration of action regimen, 6.5 hours, n=4
[19] = Duration of action regimen, 7 hours, n=4
[20] = Duration of action regimen, 7.5 hours, n=4
[21] = Duration of action regimen, 8 hours, n=4
[22] = Duration of action regimen, Baseline, Example 52 4.7 mg, ciclesonide 2.2 mg, salmeterol xinafoate 2.5 mg, n=4
[23] = Duration of action regimen, Post-Antigen, n=4
[24] = Inactive (heat-inactivated) rat lung homogenate
[25] = analyte after IT administration of Example 83, 1 mg/kg, 0.5 hr
[26] = analyte after IT administration of Example 83, 1 mg/kg, 2.0 hr
[27] = analyte after IT administration of Example 83, 1 mg/kg, 4.0 hr

CC(C)C(=O)OCC(=O)[C@@]12O[C@H](C3CCCCC3)O[C@@H]1C[C@H]1[C@@H]3CCC4=CC(=O)C=C[C@]4(C)[C@H]3[C@@H](O)C[C@@]12C [Ciclesonide, ciclesonide]
Eosinophils in BAL, Mean [1]: 60170 mL⁻¹ | Neutrophils in BAL, Mean [1]: 4790 mL⁻¹ | Neutrophils ([2]; 3 mg/kg intratracheal, 1 hour prior to LPS, rat BAL, mean ± s.e.m.): 9.7 ± 0.89 × 10^4/ml | TNFα ([2]; 3 mg/kg intratracheal, rat BAL, mean ± s.e.m.): 629.2 ± 330.0 pg/mL | Inhibition of LPS-induced airway inflammation measured as neutrophil influx and TNFα production ([2]; at doses tested, versus vehicle control): significantly inhibit | IL-1α ([3]; 0.31 mg/kg i.t.): 5.25 ± 0.85 pg/mL | MIP-1α ([3]; 0.31 mg/kg i.t.): 8.31 ± 1.17 pg/mL | Neutrophils ([3]; 0.31 mg/kg i.t.): 13.9 ± 2.1 ×10^4/ml | IL-1α [3, 9]: 5.50 ± 0.96 pg/mL | MIP-1α [3, 9]: 10.02 ± 1.75 pg/mL | Neutrophils [3, 9]: 15.0 ± 1.5 ×10^4/ml | Pulmonary Resistance (% of Baseline) [4, 10]: 302.3 ± 24.8 % of Baseline | Bronchoconstriction, Lung Resistance (% Increase) [5, 11]: 416 % Increase | Bronchoconstriction, Lung Resistance (% Increase) [5, 12]: 224 % Increase | Bronchoconstriction, Lung Resistance (% Increase) [5, 13]: 146 % Increase | Bronchoconstriction, Lung Resistance (% Increase) [5, 14]: 69 % Increase | Bronchoconstriction, Lung Resistance (% Increase) [5, 15]: 21 % Increase | Bronchoconstriction, Lung Resistance (% Increase) [5, 16]: 44 % Increase | Bronchoconstriction, Lung Resistance (% Increase) [5, 17]: 66 % Increase | Bronchoconstriction, Lung Resistance (% Increase) [5, 18]: 71 % Increase | Bronchoconstriction, Lung Resistance (% Increase) [5, 19]: 65 % Increase | Bronchoconstriction, Lung Resistance (% Increase) [5, 20]: 62 % Increase | Bronchoconstriction, Lung Resistance (% Increase) [5, 21]: 50 % Increase | Hyperreactivity PC400 [5, 22]: 28.3 carbachol breath units | Hyperreactivity PC400 [5, 23]: 21.5 carbachol breath units | Bronchoconstriction, Lung Resistance (% Increase) ([5]; Predosing regimen (last dose 1 hr before antigen), Post-Ascaris, Example 52 4.7 mg, ciclesonide 2.2 mg, n=2): 305 % Increase | Bronchoconstriction, Lung Resistance (% Increase) ([5]; Predosing regimen, 1 hour, n=2): 142 % Increase | Bronchoconstriction, Lung Resistance (% Increase) ([5]; Predosing regimen, 2 hours, n=2): 44 % Increase | Bronchoconstriction, Lung Resistance (% Increase) ([5]; Predosing regimen, 3 hours, n=2): 8 % Increase | Bronchoconstriction, Lung Resistance (% Increase) ([5]; Predosing regimen, 4 hours, n=2): 6 % Increase | Bronchoconstriction, Lung Resistance (% Increase) ([5]; Predosing regimen, 5 hours, n=2): 14 % Increase | Bronchoconstriction, Lung Resistance (% Increase) ([5]; Predosing regimen, 6 hours, n=2): 28 % Increase | Bronchoconstriction, Lung Resistance (% Increase) ([5]; Predosing regimen, 6.5 hours, n=2): 12 % Increase | Bronchoconstriction, Lung Resistance (% Increase) ([5]; Predosing regimen, 7 hours, n=2): 28 % Increase | Bronchoconstriction, Lung Resistance (% Increase) ([5]; Predosing regimen, 7.5 hours, n=2): 33 % Increase | Bronchoconstriction, Lung Resistance (% Increase) ([5]; Predosing regimen, 8 hours, n=2): 15 % Increase | Hyperreactivity PC400 ([5]; Predosing regimen, Baseline, Example 52 4.7 mg, ciclesonide 2.2 mg, n=2): 26.5 carbachol breath units | Hyperreactivity PC400 ([5]; Predosing regimen, Post-Antigen (24 hours after challenge), n=2): 25.5 carbachol breath units | Effect on late phase bronchoconstriction and development of airway hyperreactivity [5]: reduced efficacy | Mean [Parent] (nM) at 2 hrs, 37° C. ([6]; Active homogenate): 18 nM | Mean % compound remaining at 2 hrs, 37° C. ([6]; Active rat lung homogenate): 12% | Mean % compound remaining at 2 hrs, 37° C. [6, 24]: 88% | Mean [Parent] (nM) at 2 hrs, 37° C. ([6]; Inactive homogenate): 154 nM

CCN(CC)Cc1ccc(C(=O)OCC(=O)[C@@]23O[C@H](C4CCCCC4)O[C@@H]2C[C@H]2[C@@H]4CCC5=CC(=O)C=C[C@]5(C)[C@H]4[C@@H](O)C[C@@]23C)cc1 [Example 30, 4-Diethylaminomethylbenzoic acid [[11β,16α]-[[((R)-cyclohexylmethylene)bis(oxy)]-11-hydroxypregna-1,4-diene-3,20-dion-21-yl]]ester]
melting point: 123.5 °C (dec.) | Mean [Parent] (nM) at 2 hrs, 37° C. ([6]; Active homogenate): 102 nM | Mean % compound remaining at 2 hrs, 37° C. ([6]; Active rat lung homogenate): 46% | Mean % compound remaining at 2 hrs, 37° C. [6, 24]: 51% | Mean [Parent] (nM) at 2 hrs, 37° C. ([6]; Inactive homogenate): 109 nM

OCc1cc(C(O)CNCCCCCCOCCCCc2ccccc2)ccc1O (stereo not drawn) [Salmeterol Xinafoate, salmeterol xinafoate]
IL-1α ([3]; 0.57 mg/kg i.t.): 4.22 ± 0.73 pg/mL | MIP-1α ([3]; 0.57 mg/kg i.t.): 6.09 ± 1.38 pg/mL | Neutrophils ([3]; 0.57 mg/kg i.t.): 10.9 ± 2.5 ×10^4/ml | Pulmonary Resistance (% of Baseline) ([4]; 3 μg/kg by inhalation): 265.6 ± 38.8 % of Baseline | Pulmonary Resistance (% of Baseline) [4, 10]: 177.8 ± 14.4 % of Baseline | Bronchoconstriction, Lung Resistance (% Increase) [5, 11]: 370 % Increase | Bronchoconstriction, Lung Resistance (% Increase) [5, 12]: 213 % Increase | Bronchoconstriction, Lung Resistance (% Increase) [5, 13]: 114 % Increase | Bronchoconstriction, Lung Resistance (% Increase) [5, 14]: 64 % Increase | Bronchoconstriction, Lung Resistance (% Increase) [5, 15]: 25 % Increase | Bronchoconstriction, Lung Resistance (% Increase) [5, 16]: 54 % Increase | Bronchoconstriction, Lung Resistance (% Increase) [5, 17]: 86 % Increase | Bronchoconstriction, Lung Resistance (% Increase) [5, 18]: 85 % Increase | Bronchoconstriction, Lung Resistance (% Increase) [5, 19]: 83 % Increase | Bronchoconstriction, Lung Resistance (% Increase) [5, 20]: 76 % Increase | Bronchoconstriction, Lung Resistance (% Increase) [5, 21]: 72 % Increase | Hyperreactivity PC400 [5, 22]: 29.5 carbachol breath units | Hyperreactivity PC400 [5, 23]: 22.8 carbachol breath units

OCc1cc(C(O)CNCCCCCCOCCCCc2ccccc2)ccc1O (stereo not drawn) [salmeterol]
Effect on late phase bronchoconstriction and development of airway hyperreactivity [5]: reduced efficacy | Lung Resistance (% Increase) at 2% Carbachol ([7]; Duration of action regimen (last dose 24 hours before carbachol), Ciclesonide 2.2 mg + Salmeterol Xinafoate 2.5 mg): 594 ± 56 % Increase | Lung Resistance (% Increase) at 2% Carbachol ([7]; Predosing regimen (last dose 1 hr before carbachol)): 352 ± 27 % Increase | Plasma Conc ([8]; analyte after IT administration of Example 52, 3 mg/kg, 0.5 hr): BLQ | Plasma Conc ([8]; analyte after IT administration of Example 52, 3 mg/kg, 2.0 hr): BLQ | Plasma Conc ([8]; analyte after IT administration of Example 52, 3 mg/kg, 4.0 hr): BLQ | BALF Conc [8, 25]: BLQ | Plasma Conc [8, 25]: BLQ | BALF Conc [8, 26]: BLQ | Plasma Conc [8, 26]: BLQ | BALF Conc [8, 27]: BLQ | Plasma Conc [8, 27]: BLQ

Reference: US20090318396A1, “CORTICOSTEROID LINKED BETA-AGONIST COMPOUNDS FOR USE IN THERAPY” (priority 2008, published 2009)
